Results reported in PMC4545932, “Inhibition by stabilization: targeting the Plasmodium falciparum aldolase–TRAP complex” (Malaria Journal, 2015).

Biological target: T1, rabbit muscle aldolase (Oryctolagus cuniculus, UniProt P00883)
T1 construct: gene ALDOA
T1 sequence (P00883 2-364): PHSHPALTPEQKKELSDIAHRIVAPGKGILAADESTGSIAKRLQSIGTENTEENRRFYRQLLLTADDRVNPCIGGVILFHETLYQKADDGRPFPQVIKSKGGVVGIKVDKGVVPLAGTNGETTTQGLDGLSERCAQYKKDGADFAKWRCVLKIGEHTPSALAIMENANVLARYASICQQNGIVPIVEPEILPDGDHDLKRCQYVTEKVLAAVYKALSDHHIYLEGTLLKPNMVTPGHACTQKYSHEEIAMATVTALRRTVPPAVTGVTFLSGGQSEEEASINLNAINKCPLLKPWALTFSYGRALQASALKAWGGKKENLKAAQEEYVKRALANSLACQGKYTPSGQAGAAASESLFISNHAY
Assay: coupled NADH assay (alpha-GDH/TPI), […] nm
Type: biochemical
Details: 2 mM F16P; pH 7.3; 25 °C; no TRAP peptide

## O=P(O)(O)OC[C@H]1OC(O)(COP(=O)(O)O)[C@@H](O)[C@@H]1O (stereo partly shown) [fructose 1,6-bisphosphate]
  coupled NADH assay (alpha-GDH/TPI), 340 nm: The assay was performed as described previously, however in the absence of TRAP-peptide
